The values that follow are results of earlier work, collected in patent US20060153842A1, “Immunosuppressive combination and its use in the treatment or prophylaxis or insulin-producing cell graft rejection” (priority 2001, published 2006).

The series concerns islet allograft in male rats. As to conditions: male rats hyperglycemic with streptozotocin; pre-administration the day before and the day of grafting.

As for `CCCCCCCCc1ccc(CCC(N)(CO)CO)cc1` [FTY720, 2-amino-2-[2-(4-octylphenyl)ethyl]propane-1,3-diol], the “prolonged islet allograft survival” value is “up to 20 days”.
